# The supplement of paper PMC10307832
# Compound: CC1=C(C(=O)N2C=CSC2=N1)CCN3CCC(=C(C4=CC=CC=C4)C5=CC=C(C=C5)F)CC3 + CC(C)C[C@H](NC(=O)[C@H](Cc1ccccc1)NC(=O)c1cnccn1)B(O)O [Bortezomib] (partner 0.002 µM)
# Assay: relative viability (nuclei count vs DMSO), 5 days (fraction); higher = more cells survive
# How it was run: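 Relative viability divides the nuclei count in treated wells by that in vehicle wells. Lung cancer cell lines were seeded in 1536-well plates, dosed by pin tool the next day, and fixed and stained after 5 days in one step with final 0.05% Triton X-100, 1% formaldehyde and 1 ug/ml Hoechst. Dosing was a single drug or a fixed anchor-drug dose plus five library-drug doses (not always all listed) in √10 steps, and values are medians of duplicate plates imaged at 4×.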
Cell Line,relative viability (first compound 0.08 µM),relative viability (first compound 0.253 µM),relative viability (first compound 0.8 µM),relative viability (first compound 2.53 µM),relative viability (first compound 8 µM)
HCC-15,1.05,1.04,1.09,0.964,0.786
HARA,1.08,1.47,1.13,1.21,1.05
LCLC-97TM1,,0.484,0.249,0.408,0.597
EMC-BAC-2,0.902,1.13,1.07,1.07,0.705
NCI-H520,0.615,0.485,0.57,0.999,0.523
H3255,0.909,0.831,0.704,0.873,0.732
NCI-H1355,1.28,1.25,1.25,1.21,0.921
NCI-H1563,0.928,0.957,0.852,0.827,0.722
PC-14,0.9,0.759,1.01,1.09,0.592
201T,1.16,1.12,1.08,1.16,1.13
NCI-H647,0.858,0.744,0.888,1.5,0.453
NCI-H1975,0.35,0.329,0.368,0.434,0.362
NCI-H2009,1.25,1.11,0.986,1.03,0.88
NCI-H3122,1.04,1.04,0.993,1.14,1.16
NCI-H460,0.718,0.799,1.3,,0.184
CAL-12T,,0.745,0.843,1.03,0.733
SW 1573,1.26,1.16,1.05,1.06,0.649
PC-3 [JPC-3],0.811,0.895,0.969,1.01,0.642
EKVX,0.826,0.923,1.18,1.01,0.684
UMC-11,0.793,0.609,0.731,0.861,0.595
NCI-H1651,0.858,0.874,0.908,1.01,0.809
ChaGo-K-1,1.24,0.989,0.761,1.34,0.94
NCI-H2126,1.24,1.07,1.15,1.22,1.08

Cell Line,relative viability (first compound 0.08 µM),relative viability (first compound 0.253 µM),relative viability (first compound 0.8 µM),relative viability (first compound 2.53 µM),relative viability (first compound 8 µM)
EPLC-272H,,0.888,0.888,1.07,0.921
NCI-H1703,0.262,0.316,0.256,0.359,0.263
LXF-289,1.08,1.13,1.05,0.97,0.933
NCI-H838,0.591,0.581,0.654,0.824,0.696
NCI-H2347,,1.18,0.957,1.04,0.895
BEN,0.76,0.757,0.864,0.828,0.534
LU99A,1.23,1.11,1.05,1.14,0.904
Calu-6,1.05,1.14,0.933,1.02,0.767
NCI-H1755,0.948,0.9,0.962,1.11,0.44
NCI-H1437,,0.398,0.476,0.484,0.351
NCI-H2085,1.04,1.02,1.07,1.07,0.878
RERF-LC-KJ,1.02,1.02,1.16,1.18,1
LOU-NH91,0.508,0.507,0.483,0.481,0.55
NCI-H2228,0.939,0.928,1.25,1.17,0.64
NCI-H322M,1.3,1.28,1.24,1.35,1.09
NCI-H1650,0.216,0.193,0.21,0.234,0.227
NCI-H1734,0.873,0.715,0.915,1.12,0.447
HOP-62,0.731,0.628,1.03,0.922,0.323
HCC-366,,1.14,1.18,1.04,0.308
LCLC-103H,1.06,1.06,0.957,1.22,0.903
NCI-H1915,1.02,0.864,1.1,0.971,0.472
NCI-H1666,0.83,0.762,0.924,0.815,0.695
LC-2-ad,1.05,0.799,1.03,1.22,0.827

Cell Line,relative viability (first compound 0.08 µM),relative viability (first compound 0.253 µM),relative viability (first compound 0.8 µM),relative viability (first compound 2.53 µM),relative viability (first compound 8 µM)
HCC-44,0.926,0.769,0.896,1.06,0.856
HCC-827,0.975,0.843,1.01,1.11,0.987
NCI-H727,0.802,1.03,0.997,0.858,0.633
NCI-H596,1.09,1.02,0.903,0.887,0.989
NCI-H2087,0.836,0.795,1.02,1.02,0.589
NCI-H650,,0.696,0.877,0.817,0.599
ABC-1,0.313,0.297,0.252,0.244,0.269
A-427,1.07,1.08,0.984,1.03,0.834
NCI-H1299,1.07,1.04,1.04,1.02,0.702
HCC-78,0.458,0.616,0.552,0.447,0.405
SK-LU-1,1.08,0.965,1.05,1.19,1.01
NCI-H441,,0.447,0.464,0.468,0.215
NCI-H1792,0.742,0.614,0.976,0.77,0.438
NCI-H2023,1.2,0.905,0.917,1.08,0.736
NCI-H23,0.705,1.08,1.1,0.974,0.545
COR-L23,0.701,0.74,1.02,1.18,0.397
NCI-H1993,0.834,,0.919,1.5,0.987
NCI-H661,0.764,0.776,0.88,0.871,0.697
COR-L 105,0.83,0.691,0.75,0.919,0.568
IA-LM,0.621,0.757,0.711,0.843,0.63
NCI-H2405,0.872,0.969,0.999,0.732,0.814
